Laboratory results: the NIST ThermoML archive (doi:10.1016/j.jct.2017.06.001)
± gives the expanded uncertainty stated by the source.

Assay: xn = mol fraction of the nth substance listed
Details: 100 kPa, Liquid; for speed of sound: Frequency=5 MHz, Pulse-echo method; for mass density: Vibrating tube method

OCCCCCO [1,5-pentanediol] + O
Details	mass density [kg/m3]	speed of sound [m/s]
308.15 K, x1 = 0.005	993.57 ± 0.52	–
308.15 K, x1 = 0.0101	993.45 ± 1	–
308.15 K, x1 = 0.0196	993.6 ± 1	–
308.15 K, x1 = 0.0251	993.93 ± 1	–
308.15 K, x1 = 0.0304	994.32 ± 1	–
308.15 K, x1 = 0.05	995.28 ± 1	–
308.15 K, x1 = 0.0769	995.98 ± 1	–
308.15 K, x1 = 0.0798	–	1647 ± 1.2
308.15 K, x1 = 0.0835	–	1649.2 ± 1.2
308.15 K, x1 = 0.0879	–	1651.5 ± 1.2
308.15 K, x1 = 0.0918	–	1653.4 ± 1.2
308.15 K, x1 = 0.0964	–	1655.5 ± 1.2
308.15 K, x1 = 0.1002	996.54 ± 1.1	1657 ± 1.2
308.15 K, x1 = 0.106	–	1659 ± 1.2
308.15 K, x1 = 0.1116	–	1660.7 ± 1.2
308.15 K, x1 = 0.1172	–	1662.1 ± 1.2
308.15 K, x1 = 0.1233	–	1663.4 ± 1.2
308.15 K, x1 = 0.131	–	1664.8 ± 1.2
308.15 K, x1 = 0.1377	–	1665.7 ± 1.2
308.15 K, x1 = 0.1435	–	1666.3 ± 1.2
308.15 K, x1 = 0.1438	996.71 ± 1.1	–
308.15 K, x1 = 0.1514	–	1666.9 ± 1.3
308.15 K, x1 = 0.161	–	1667.4 ± 1.3
308.15 K, x1 = 0.1675	–	1667.5 ± 1.3
308.15 K, x1 = 0.1737	–	1667.6 ± 1.3
308.15 K, x1 = 0.1787	–	1667.6 ± 1.3
308.15 K, x1 = 0.1838	–	1667.5 ± 1.3
308.15 K, x1 = 0.1845	996.26 ± 1.1	–
308.15 K, x1 = 0.1893	–	1667.4 ± 1.3
308.15 K, x1 = 0.1953	–	1667.2 ± 1.3
308.15 K, x1 = 0.2011	–	1667 ± 1.3
308.15 K, x1 = 0.2239	–	1665.8 ± 1.3
308.15 K, x1 = 0.2306	–	1665.4 ± 1.3
308.15 K, x1 = 0.2378	–	1664.9 ± 1.3
308.15 K, x1 = 0.2491	–	1664 ± 1.3
308.15 K, x1 = 0.2503	995.17 ± 1.2	–
308.15 K, x1 = 0.2581	–	1663.3 ± 1.3
308.15 K, x1 = 0.2683	–	1662.5 ± 1.4
308.15 K, x1 = 0.2832	–	1661.2 ± 1.4
308.15 K, x1 = 0.3	994.06 ± 1.2	–
308.15 K, x1 = 0.3005	–	1659.5 ± 1.4
308.15 K, x1 = 0.3223	–	1657.4 ± 1.4
308.15 K, x1 = 0.3343	993.37 ± 1.3	–
308.15 K, x1 = 0.3402	–	1655.5 ± 1.4
308.15 K, x1 = 0.3515	–	1654.3 ± 1.4
308.15 K, x1 = 0.3735	–	1651.8 ± 1.5
308.15 K, x1 = 0.3924	–	1649.6 ± 1.5
308.15 K, x1 = 0.4062	–	1647.9 ± 1.5
308.15 K, x1 = 0.4171	991.68 ± 1.4	–
308.15 K, x1 = 0.4304	–	1644.9 ± 1.5
308.15 K, x1 = 0.4462	–	1642.8 ± 1.5
308.15 K, x1 = 0.454	990.78 ± 1.4	–
308.15 K, x1 = 0.4661	–	1640.2 ± 1.6
308.15 K, x1 = 0.4803	–	1638.3 ± 1.6
308.15 K, x1 = 0.4957	–	1636.1 ± 1.6
308.15 K, x1 = 0.5003	989.8 ± 1.5	–
308.15 K, x1 = 0.5119	–	1633.9 ± 1.6
308.15 K, x1 = 0.5238	–	1632.2 ± 1.6
308.15 K, x1 = 0.5362	989.1 ± 1.5	–
308.15 K, x1 = 0.5406	–	1629.8 ± 1.6
308.15 K, x1 = 0.5482	–	1628.7 ± 1.7
308.15 K, x1 = 0.5622	–	1626.7 ± 1.7
308.15 K, x1 = 0.5848	–	1623.5 ± 1.7
308.15 K, x1 = 0.6035	–	1620.8 ± 1.7
308.15 K, x1 = 0.6177	987.6 ± 1.7	–
308.15 K, x1 = 0.6216	–	1618.2 ± 1.8
308.15 K, x1 = 0.6446	–	1615 ± 1.8
308.15 K, x1 = 0.6478	987 ± 1.7	–
308.15 K, x1 = 0.6646	–	1612.2 ± 1.8
308.15 K, x1 = 0.6864	–	1609.3 ± 1.8
308.15 K, x1 = 0.7025	986.1 ± 1.8	–
308.15 K, x1 = 0.7086	–	1606.4 ± 1.9
308.15 K, x1 = 0.7293	–	1603.7 ± 1.9
308.15 K, x1 = 0.7497	–	1601.1 ± 1.9
308.15 K, x1 = 0.7504	985.3 ± 1.9	–
308.15 K, x1 = 0.7689	–	1598.8 ± 2
308.15 K, x1 = 0.7904	–	1596.2 ± 2
308.15 K, x1 = 0.7927	984.6 ± 2	–
308.15 K, x1 = 0.8099	–	1593.9 ± 2
308.15 K, x1 = 0.8308	–	1591.5 ± 2
308.15 K, x1 = 0.8561	–	1588.6 ± 2.1
308.15 K, x1 = 0.8605	983.4 ± 2.1	–
308.15 K, x1 = 0.8812	–	1585.8 ± 2.1
308.15 K, x1 = 0.9004	982.7 ± 2.2	–
308.15 K, x1 = 0.9098	–	1582.5 ± 2.2
308.15 K, x1 = 0.9326	–	1579.9 ± 2.2
308.15 K, x1 = 0.9496	981.7 ± 2.3	–
308.15 K, x1 = 0.9519	–	1577.5 ± 2.2
308.15 K, x1 = 0.9707	–	1575.2 ± 2.3
308.15 K, x1 = 0.9812	–	1573.8 ± 2.3
308.15 K, x1 = 0.9864	–	1573.2 ± 2.3
308.15 K, x1 = 0.9944	–	1572.1 ± 2.3
308.15 K, x1 = 1	980.7 ± 2.1	1571.3 ± 2.3
313.15 K, x1 = 0.0002	–	1529.3 ± 1.2
313.15 K, x1 = 0.0004	–	1529.9 ± 1.2
313.15 K, x1 = 0.0006	–	1530.6 ± 1.2
313.15 K, x1 = 0.0009	–	1531.5 ± 1.2
313.15 K, x1 = 0.0013	–	1532.4 ± 1.2
313.15 K, x1 = 0.0016	–	1533.4 ± 1.2
313.15 K, x1 = 0.002	–	1534.5 ± 1.2
313.15 K, x1 = 0.0025	–	1535.9 ± 1.2
313.15 K, x1 = 0.0032	–	1537.6 ± 1.2
313.15 K, x1 = 0.0039	–	1539.6 ± 1.2
313.15 K, x1 = 0.0045	–	1541.2 ± 1.2
313.15 K, x1 = 0.0052	–	1542.9 ± 1.2
313.15 K, x1 = 0.0058	–	1544.6 ± 1.2
313.15 K, x1 = 0.0065	–	1546.5 ± 1.2
313.15 K, x1 = 0.0073	–	1548.3 ± 1.2
313.15 K, x1 = 0.0081	–	1550.4 ± 1.2
313.15 K, x1 = 0.0088	–	1552.1 ± 1.2
313.15 K, x1 = 0.0097	–	1554.2 ± 1.2
313.15 K, x1 = 0.0107	–	1556.6 ± 1.2
313.15 K, x1 = 0.0118	–	1559 ± 1.2
313.15 K, x1 = 0.013	–	1561.7 ± 1.2
313.15 K, x1 = 0.0142	–	1564.4 ± 1.2
313.15 K, x1 = 0.0153	–	1566.8 ± 1.2
313.15 K, x1 = 0.0164	–	1569.2 ± 1.2
313.15 K, x1 = 0.0176	–	1571.6 ± 1.2
313.15 K, x1 = 0.0187	–	1573.8 ± 1.2
313.15 K, x1 = 0.02	–	1576.4 ± 1.2
313.15 K, x1 = 0.0214	–	1579 ± 1.2
313.15 K, x1 = 0.0227	–	1581.5 ± 1.2
313.15 K, x1 = 0.0243	–	1584.4 ± 1.2
313.15 K, x1 = 0.0259	–	1587.2 ± 1.2
313.15 K, x1 = 0.0276	–	1590 ± 1.2
313.15 K, x1 = 0.0293	–	1592.8 ± 1.2
313.15 K, x1 = 0.0308	–	1595.3 ± 1.2
313.15 K, x1 = 0.0322	–	1597.4 ± 1.2
313.15 K, x1 = 0.0341	–	1600.2 ± 1.2
313.15 K, x1 = 0.036	–	1602.9 ± 1.2
313.15 K, x1 = 0.0378	–	1605.4 ± 1.2
313.15 K, x1 = 0.0395	–	1607.7 ± 1.2
313.15 K, x1 = 0.0417	–	1610.5 ± 1.2
313.15 K, x1 = 0.0441	–	1613.4 ± 1.2
313.15 K, x1 = 0.0462	–	1615.8 ± 1.2
313.15 K, x1 = 0.0486	–	1618.4 ± 1.2
313.15 K, x1 = 0.0505	–	1620.4 ± 1.2
313.15 K, x1 = 0.0522	–	1622.1 ± 1.2
313.15 K, x1 = 0.0542	–	1624.1 ± 1.2
313.15 K, x1 = 0.0571	–	1626.6 ± 1.2
313.15 K, x1 = 0.0588	–	1628.1 ± 1.2
313.15 K, x1 = 0.0608	–	1629.8 ± 1.2
313.15 K, x1 = 0.0624	–	1631.2 ± 1.2
313.15 K, x1 = 0.0648	–	1632.9 ± 1.2
313.15 K, x1 = 0.0682	–	1635.4 ± 1.2
313.15 K, x1 = 0.0705	–	1636.9 ± 1.2
313.15 K, x1 = 0.0732	–	1638.6 ± 1.2
313.15 K, x1 = 0.0767	–	1640.7 ± 1.2
313.15 K, x1 = 0.0802	–	1642.6 ± 1.2
313.15 K, x1 = 0.0837	–	1644.2 ± 1.2
313.15 K, x1 = 0.0875	–	1646 ± 1.2
313.15 K, x1 = 0.0918	–	1647.7 ± 1.2
313.15 K, x1 = 0.0975	–	1649.7 ± 1.2
313.15 K, x1 = 0.1013	–	1650.9 ± 1.2
313.15 K, x1 = 0.106	–	1652.2 ± 1.2
313.15 K, x1 = 0.1096	–	1653 ± 1.2
